In PubChem BioAssay (NCI):
“And” between values parts separate entries of the source, which are not always exact repeats. Identical values can stand only once.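 Protocol summary: plate cells (96-well), add compound at 5 concentrations, incubate 48 h, interpolate endpoints linearly. At the GI50, growth is halved. TGI: total growth inhibition.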

Columns and labels:
Experiment in all cases: growth of human tumour cells (NCI), 48 h
[1] = test system: SK-MEL-2 melanoma
[2] = test system: SK-MEL-5 melanoma
[3] = test system: HOP-92 NSCLC
[4] = test system: CAKI-1 renal
[5] = test system: SNB-19 CNS
[6] = test system: HOP-62 NSCLC
[7] = test system: KM12 colon
[8] = test system: SR leukemia
[9] = test system: PC-3 prostate
[10] = test system: HT29 colon

| SMILES | GI50 [1] | TGI [1] | GI50 [2] | TGI [2] | GI50 [3] | TGI [3] | GI50 [4] | TGI [4] | GI50 [5] | TGI [5] | GI50 [6] | TGI [6] | GI50 [7] | TGI [7] | GI50 [8] | TGI [8] | GI50 [9] | TGI [9] | GI50 [10] | TGI [10] |
| --- | --- | --- | --- | --- | --- | --- | --- | --- | --- | --- | --- | --- | --- | --- | --- | --- | --- | --- | --- | --- |
| O=C(O)c1ccc(NCc2nc3ccccc3[nH]2)cc1 | > 100 µM | > 100 µM | > 100 µM | > 100 µM | > 100 µM | > 100 µM | > 100 µM | > 100 µM | > 100 µM | > 100 µM | > 100 µM | > 100 µM | > 100 µM | > 100 µM | > 100 µM | > 100 µM | > 100 µM | > 100 µM | > 100 µM | > 100 µM |
| CC(C)n1nc(C#Cc2cccc(O)c2)c2c(N)ncnc21 | 0.721 µM and 0.751 µM | 2.69 µM and 3.11 µM | 1.72 µM and 0.887 µM | 6.39 µM and 2.67 µM | 0.489 µM and 0.187 µM | 2.35 µM and 0.774 µM | 1.66 µM and 1.59 µM | 6.06 µM and 6.87 µM | 3.02 µM and 2.16 µM | 21.4 µM and 14.4 µM | 1.18 µM and 1.3 µM | 4.31 µM and 5 µM | 1.75 µM and 2.33 µM | 25.8 µM and 60.8 µM | 1.17 µM and 0.573 µM | 23.4 µM and 11.4 µM | 1.37 µM and 1.18 µM | 12.3 µM and 13.9 µM | 2.04 µM and 1.74 µM | 50 µM and 19.4 µM |
| Cc1cc(I)cc(CNCCN2CCOCC2)c1O | > 100 µM | > 100 µM | 67.1 µM | > 100 µM | 59.8 µM | > 100 µM | > 100 µM | > 100 µM | > 100 µM | > 100 µM | 29.4 µM | > 100 µM | 86.8 µM | > 100 µM | 90.2 µM | > 100 µM | > 100 µM | > 100 µM | > 100 µM | > 100 µM |
| COc1ccc(C2CC(c3ccccc3)=NN2C(=O)c2cc(OC)c(OC)c(OC)c2)cc1O (configuration not stated) | 4.74 µM | > 42 µM | 0.338 µM | 2.17 µM | 1.72 µM | 33.2 µM | 0.925 µM | > 100 µM | 0.645 µM | > 100 µM | 0.397 µM | 5.21 µM | 0.371 µM | 24.1 µM | 0.302 µM | 5.85 µM | 0.369 µM | > 52.8 µM | 2.96 µM | 8.31 µM |
| CC(=O)OC1CC2C(C)(C)CCC[C@]2(C)C2=C1C(O)=C(C(C)C)C(=O)C2=O (some centres not stated) | 0.356 µM | 1.39 µM | 0.174 µM | 0.343 µM | 0.123 µM | 0.547 µM | 0.567 µM | 2.9 µM | 0.646 µM | > 46 µM | 2.13 µM | 4.47 µM | 0.644 µM | 2.15 µM | 0.39 µM | 2.11 µM | 0.731 µM | 5.12 µM | – | – |
| Cc1cc(O[C@@H]2O[C@@H](C)[C@H](O)[C@@H](O)[C@H]2O)c2c3c(c(O[C@@H]4O[C@@H](C)[C@H](O)[C@@H](O)[C@H]4O)cc2c1)C(=O)c1c(O)cccc1C3=O | > 30 µM | > 30 µM | > 30 µM | > 30 µM | > 30 µM | > 30 µM | – | – | > 30 µM | > 30 µM | > 30 µM | > 30 µM | > 30 µM | > 30 µM | > 30 µM | > 30 µM | > 30 µM | > 30 µM | > 30 µM | > 30 µM |
| COc1ccc(N=N/C(=N\NC(=O)c2cc(Br)ccc2O)c2ccc(N(CCC#N)CCC#N)cc2OC)cc1 | 95.8 mg/L | > 150 mg/L | 56.1 mg/L | > 150 mg/L | 81.9 mg/L | > 150 mg/L | 53.3 mg/L | > 150 mg/L | > 150 mg/L | > 150 mg/L | – | – | 44.6 mg/L | 128 mg/L | 62.8 mg/L | > 150 mg/L | 57.6 mg/L | > 150 mg/L | 40.9 mg/L | 118 mg/L |
| CCC(CC)c1cc(N[C@H]2CC[C@H](N)C2)n2nccc2n1 | 1.64 µM | 3.64 µM | 2.21 µM | 11 µM | 3.56 µM | > 100 µM | 0.423 µM | > 100 µM | 1.06 µM | > 100 µM | 0.99 µM | > 100 µM | 1.7 µM | > 100 µM | 0.332 µM | > 100 µM | 2.43 µM | > 100 µM | 0.735 µM | > 100 µM |
| CCC1=C[C@@H]2CN(C1)Cc1c([nH]c3ccccc13)[C@@](C(=O)OC)(c1cc3c(cc1OC)N(C)[C@H]1[C@@](O)(C(=O)OC)[C@H](OC(C)=O)[C@]4(CC)C=CCN5CC[C@]31[C@@H]54)C2 | 0.727 µM | 9.23 µM | < 0.01 µM | 0.119 µM | < 0.0471 µM | 0.554 µM | – | 2.52 µM | < 0.01 µM | 18.9 µM | < 0.0148 µM | 24.4 µM | – | – | < 0.01 µM | 1.95 µM | < 0.01 µM | 21.8 µM | < 0.01 µM | > 41.6 µM |
| Cc1ccc(/C=C(/C#N)n2nnc3ncccc32)cc1 | 2.47 µM | 8.66 µM | 2.89 µM | 12.8 µM | 1.82 µM | 6.19 µM | – | – | 3.43 µM | 16.8 µM | 3.17 µM | 12.9 µM | 2.11 µM | 14.9 µM | 0.765 µM | 26.8 µM | 4.18 µM | 21.2 µM | 2.08 µM | 11.5 µM |
| COC1=CC(c2ccc[nH]2)=N/C1=C\c1[nH]c(C)c(C(=O)Oc2ccccc2)c1C | 0.194 µM | 0.479 µM | 0.0929 µM | 0.269 µM | 0.189 µM | 0.564 µM | 0.0679 µM | – | 1.29 µM | > 100 µM | 0.71 µM | 3.86 µM | 0.118 µM | 1.69 µM | 0.2 µM | 1.11 µM | 0.117 µM | > 100 µM | – | – |
| CCNC(=O)Oc1ccc(/C(=C(\C)c2ccc(Cl)cc2)c2ccc(OCCN(CC)CC)cc2)cc1 | 5.01 µM | 17.6 µM | 1.75 µM | 3.15 µM | 3.16 µM | 12.6 µM | – | – | 3.13 µM | 8.45 µM | 4.35 µM | 16.4 µM | 4.22 µM | 15.5 µM | 2.55 µM | 10.7 µM | 3.89 µM | 14.1 µM | 2.52 µM | 6.44 µM |
| CCCCOC(=O)/C=C\C(=O)NC(N)=O | – | – | 24.3 µM | 71.4 µM | 10.9 µM | 24.4 µM | 2.53 µM | 9.23 µM | 41.2 µM | > 100 µM | 32.5 µM | > 100 µM | 25 µM | 66.9 µM | 35.7 µM | > 100 µM | 25 µM | 69.7 µM | – | – |
| COc1ccc(C2=NN(C=O)C(c3ccc(OS(=O)(=O)c4ccc(C)cc4)c(OC)c3)C2)cc1 (configuration not stated) | 3.52 µM | 38.6 µM | – | – | 1.88 µM | 31.1 µM | 5.35 µM | > 100 µM | 11.7 µM | > 100 µM | 9.47 µM | 74 µM | 9.23 µM | > 100 µM | 3.02 µM | > 100 µM | 3.34 µM | > 100 µM | – | – |
| O=C1Nc2ccc(O)cc2/C1=C\c1ccncc1 | 14.5 µM | 43.1 µM | 15.5 µM | 38.1 µM | 31.2 µM | > 100 µM | 17.9 µM | 54.2 µM | 21.2 µM | 59 µM | 23.9 µM | 56.4 µM | 16.9 µM | 46.4 µM | 3.75 µM | 17.8 µM | 26.9 µM | 77.8 µM | – | – |
| C/C=C(\C)c1cc(=O)c2c(C)cc3c(c2o1)C(OC)(OC(C)=O)c1c(O)c(C2CC(C)(N(C)C)C(OC(C)=O)C(C)O2)cc(C2CC(N(C)C)C(OC(C)=O)C(C)O2)c1C3=O (configuration not stated) | – | – | – | > 100 µM | – | 6.91 µM | – | 9.39 µM | – | 14.1 µM | – | > 100 µM | – | 8.24 µM | – | 0.842 µM | – | > 100 µM | – | > 20.4 µM |
| CS(=O)(=O)O[C@H]1C(=O)N(c2cc3c4ccccc4ccc3c3ccccc23)[C@@H]1c1ccccn1 | 0.687 µM | > 100 µM | 0.3 µM | 3.35 µM | 0.395 µM | 56.3 µM | 0.413 µM | > 100 µM | 0.749 µM | > 100 µM | 0.612 µM | > 100 µM | 0.473 µM | > 100 µM | 0.384 µM | > 100 µM | 0.399 µM | > 100 µM | – | – |
| CCOC(=O)C1=C(C)NC(C)=C(C(=O)OCCNC(=O)c2ccc(N=[N+]=[N-])cc2)C1c1ccccc1C(F)(F)F (configuration not stated) | – | – | – | 12.7 µM | – | 18.9 µM | – | 21.5 µM | – | 21.5 µM | – | > 21.5 µM | – | 21.5 µM | – | 21.5 µM | – | 21.5 µM | – | 21.5 µM |
| CC(=O)NC(CS)C(=O)O (configuration not stated) | > 100 µM | > 100 µM and 66300 µM | > 100 µM | > 100 µM and 66800 µM | – | – | > 100 µM | > 100 µM and 53400 µM | > 100 µM | > 100 µM | – | 45500 µM | > 100 µM | > 100 µM and 98100 µM | > 100 µM | > 100 µM | > 100 µM | > 100 µM | > 100 µM | > 100 µM and 86700 µM |
